The NIST ThermoML archive (doi:10.1016/j.jct.2012.03.003)

Assay: xn = mol fraction of the nth substance listed
Details: Liquid, Vibrating tube method

COc1cc2c(cc1O)CC1c3c(cc(O)c(OC)c3-2)CCN1C (stereo not given) [boldine] + CCCO
Details	mass density [kg/m3]
362.92 K, 3000 kPa, x1 = 0.0077	759.06
362.92 K, 4000 kPa, x1 = 0.0046	756.24
362.92 K, 4000 kPa, x1 = 0.0077	760.16
362.92 K, 5000 kPa, x1 = 0.0046	757.34
362.92 K, 5000 kPa, x1 = 0.0077	761.28
362.92 K, 6000 kPa, x1 = 0.0046	758.46
362.92 K, 6000 kPa, x1 = 0.0077	762.37
362.92 K, 7000 kPa, x1 = 0.0046	759.55
362.92 K, 7000 kPa, x1 = 0.0077	763.46
362.92 K, 8000 kPa, x1 = 0.0046	760.63
362.92 K, 8000 kPa, x1 = 0.0077	764.54
362.92 K, 9000 kPa, x1 = 0.0046	761.7
362.92 K, 9000 kPa, x1 = 0.0077	765.61
362.92 K, 10000 kPa, x1 = 0.0046	762.78
362.92 K, 10000 kPa, x1 = 0.0077	766.65
362.92 K, 11000 kPa, x1 = 0.0046	763.79
362.92 K, 11000 kPa, x1 = 0.0077	767.68
362.92 K, 12000 kPa, x1 = 0.0046	764.85
362.92 K, 12000 kPa, x1 = 0.0077	768.72
362.92 K, 13000 kPa, x1 = 0.0046	765.87
362.92 K, 13000 kPa, x1 = 0.0077	769.74
362.92 K, 14000 kPa, x1 = 0.0046	766.88
362.92 K, 14000 kPa, x1 = 0.0077	770.74
362.92 K, 15000 kPa, x1 = 0.0046	767.86
362.92 K, 15000 kPa, x1 = 0.0077	771.74
362.92 K, 16000 kPa, x1 = 0.0046	768.85
362.92 K, 16000 kPa, x1 = 0.0077	772.72
362.92 K, 17000 kPa, x1 = 0.0046	769.81
362.92 K, 17000 kPa, x1 = 0.0077	773.68
362.92 K, 18000 kPa, x1 = 0.0046	770.76
362.92 K, 18000 kPa, x1 = 0.0077	774.6
362.92 K, 19000 kPa, x1 = 0.0046	771.7
362.92 K, 19000 kPa, x1 = 0.0077	775.55
362.92 K, 20000 kPa, x1 = 0.0046	772.56
362.92 K, 20000 kPa, x1 = 0.0077	776.45
362.93 K, 1000 kPa, x1 = 0.0112	763.51
362.93 K, 2000 kPa, x1 = 0.0112	764.63
362.93 K, 3000 kPa, x1 = 0.0112	765.74
362.93 K, 4000 kPa, x1 = 0.0112	766.83
362.93 K, 5000 kPa, x1 = 0.0112	767.93
362.93 K, 6000 kPa, x1 = 0.0112	769
362.93 K, 7000 kPa, x1 = 0.0112	770.08
362.93 K, 8000 kPa, x1 = 0.0112	771.14
362.93 K, 9000 kPa, x1 = 0.0112	772.39
362.93 K, 10000 kPa, x1 = 0.0112	773.24
362.93 K, 11000 kPa, x1 = 0.0112	774.29
362.93 K, 12000 kPa, x1 = 0.0112	775.28
362.93 K, 13000 kPa, x1 = 0.0112	776.29
362.93 K, 14000 kPa, x1 = 0.0112	777.28
362.93 K, 15000 kPa, x1 = 0.0112	778.25
362.93 K, 16000 kPa, x1 = 0.0112	779.21
362.93 K, 17000 kPa, x1 = 0.0112	780.16
362.93 K, 18000 kPa, x1 = 0.0112	781.11
362.93 K, 19000 kPa, x1 = 0.0112	782.03
362.93 K, 20000 kPa, x1 = 0.0112	782.93
362.94 K, 1000 kPa, x1 = 0.0018	746.61
362.94 K, 2000 kPa, x1 = 0.0018	747.75
362.94 K, 3000 kPa, x1 = 0.0018	748.91
362.94 K, 4000 kPa, x1 = 0.0018	750.05
362.94 K, 5000 kPa, x1 = 0.0018	751.17
362.94 K, 6000 kPa, x1 = 0.0018	752.28
362.94 K, 7000 kPa, x1 = 0.0018	753.38
362.94 K, 8000 kPa, x1 = 0.0018	754.49
362.94 K, 9000 kPa, x1 = 0.0018	755.54
362.94 K, 10000 kPa, x1 = 0.0018	756.62
362.94 K, 11000 kPa, x1 = 0.0018	757.69
362.94 K, 12000 kPa, x1 = 0.0018	758.72
362.94 K, 13000 kPa, x1 = 0.0018	759.77
362.94 K, 14000 kPa, x1 = 0.0018	760.8
362.94 K, 15000 kPa, x1 = 0.0018	761.77
362.94 K, 16000 kPa, x1 = 0.0018	762.79
362.94 K, 17000 kPa, x1 = 0.0018	763.76
362.94 K, 18000 kPa, x1 = 0.0018	764.68
362.94 K, 19000 kPa, x1 = 0.0018	765.63
362.94 K, 20000 kPa, x1 = 0.0018	766.58
